Experimental data from patent publication USRE40086E1, “Method for treating bacterial infection with novel 7-substituted-9-substituted amino 6-demethyl-6-deoxytetracyclines” (Wyeth Holdings Corporation, priority 1991, dated 2008).
Converted amounts (≈) assume the structure as drawn. “Also recorded” adds a separate entry of the source. Counter-ions that a name gives are not always drawn. Like-named read-outs stand apart in the source and are kept apart here.

Experiments:
[1] = system: tetracycline sensitive and resistant Gram-positive and Gram-negative bacteria; experiment: In vitro antibacterial evaluation, MIC by agar dilution (general, Tables I-V and IA); type: cell-based; conditions: summary of Tables I-V
[2] = system: S. aureus UBMS 88-5 (tetM); experiment: MIC, agar dilution; type: cell-based
[3] = system: S. aureus UBMS 88-4 (Sensitive); experiment: MIC, agar dilution; type: cell-based; conditions: S. aureus UBMS 88-4 (Sensitive)
[4] = system: S. aureus UBMS 90-1 (tetM); experiment: MIC, agar dilution; type: cell-based
[5] = system: S. aureus UBMS 90-2 (tetM); experiment: MIC, agar dilution; type: cell-based; conditions: Staphylococcus aureus, S. aureus UBMS 90-2 (tetM)
[6] = system: S. aureus UBMS 90-3 (Sensitive); experiment: MIC, agar dilution; type: cell-based; conditions: Staphylococcus aureus, S. aureus UBMS 90-3 (Sensitive)
[7] = system: S. aureus UBMS 88-7 (tetK); experiment: MIC, agar dilution; type: cell-based; conditions: Staphylococcus aureus
[8] = system: S. aureus IVES 2943 (meth. resistant); experiment: MIC, agar dilution; type: cell-based; conditions: Staphylococcus aureus
[9] = system: S. aureus IVES 1983 (meth. resistant); experiment: MIC, agar dilution; type: cell-based; conditions: Staphylococcus aureus
[10] = system: S. aureus ATCC 29213 (Sensitive); experiment: MIC, agar dilution; type: cell-based; conditions: Staphylococcus aureus, ATCC29213
[11] = system: S. aureus Smith (Sensitive); experiment: MIC, agar dilution; type: cell-based; conditions: Staphylococcus aureus
[12] = system: S. haemolyticus AVAH 88-3; experiment: MIC, agar dilution; type: cell-based; conditions: Staphylococcus haemolyticus, AVAH883
E. faecalis 12201 = experiment: MIC, agar dilution; type: cell-based; conditions: Enterococcus faecalis, 12201
E. faecalis ATCC 29212 = experiment: MIC, agar dilution; type: cell-based; conditions: Enterococcus faecalis, ATCC29212
E. coli UBMS 88-1 (tetB) = experiment: MIC, agar dilution; type: cell-based; conditions: Escherichia coli, E. coli UBMS 88-1 (tetB)
[13] = system: E. coli UBMS 88-2 (Sensitive); experiment: MIC, agar dilution; type: cell-based; conditions: Escherichia coli
E. coli UBMS 89-1 (tetM) = experiment: MIC, agar dilution; type: cell-based; conditions: Escherichia coli
[14] = system: E. coli UBMS 89-2 (Sensitive); experiment: MIC, agar dilution; type: cell-based; conditions: Escherichia coli
E. coli ATCC 25922 = experiment: MIC, agar dilution; type: cell-based; conditions: Escherichia coli, ATCC25922
E. coli UBMS 90-4 (tetM) = experiment: MIC, agar dilution; type: cell-based; conditions: Escherichia coli
[15] = system: N. gonorrhoeae IL 611 (Sensitive); experiment: MIC, agar dilution; type: cell-based; conditions: Neisseria gonorrhoeae
[16] = system: N. gonorrhoeae 6418 (tetM); experiment: MIC, agar dilution; type: cell-based; conditions: Neisseria gonorrhoeae
[17] = system: E. faecalis UBMS 90-6 (tetM); experiment: MIC, agar dilution; type: cell-based; conditions: Enterococcus faecalis
[18] = system: E. faecalis UBMS 90-7 (tetM); experiment: MIC, agar dilution; type: cell-based; conditions: Enterococcus faecalis
Neisseria gonorrhoeae = experiment: MIC against clinical isolates (Table V, A and O); type: cell-based
Haemophilus influenzae [19] = experiment: MIC against clinical isolates (Table V, A and O); type: cell-based; conditions: (18) tested
Enterococcus faecalis [20] = experiment: MIC against clinical isolates (Table V, A and O); type: cell-based
Enterococcus faecium [21] = experiment: MIC against clinical isolates (Table V, A and O); type: cell-based
Escherichia coli = experiment: MIC against clinical isolates (Table V, A and O); type: cell-based; conditions: Escherichia coli
Klebsiella pneumoniae = experiment: MIC against clinical isolates (Table V, A and O); type: cell-based; conditions: Klebsiella pneumoniae
Proteus spp. indole+ = experiment: MIC against clinical isolates (Table V, A and O); type: cell-based
Bacteroides spp. = experiment: MIC against clinical isolates (Table V, A and O); type: cell-based
[22] = system: E. coli cell-free ribosomes, strain MRE 600 (TC Sensitive Host); experiment: E. coli in vitro cell free protein translation system (Table VI); type: biochemical
[23] = system: E. coli cell-free ribosomes, strain MRE 600 (tetM) (Tet M Host); experiment: as above; type: biochemical
S. aureus UBMS 90-1 = experiment: In vivo antibacterial evaluation, acute lethal infection in mice; conditions: Staphylococcus aureus, UBMS901, sc, read-out: ED50, median effective dose protecting 50% of the infected mice; mice infected with S. aureus UBMS 90-1 (tetM), single subcutaneous dosing
Excerpt: (§1) In Vivo Antibacterial Evaluation (Table VII)

S. aureus UBMS 90-2 = experiment: as above; conditions: Staphylococcus aureus, UBMS902, sc, read-out: ED50, median effective dose protecting 50% of the infected mice; mice infected with S. aureus UBMS 90-2 (tetM), single subcutaneous dosing
Excerpt: as §1

[24] = system: Staphylococcus aureus, methicillin-susceptible; experiment: MIC vs recent clinical and agricultural isolates (Table V, KK); type: cell-based; conditions: [15] tested
Enterococcus faecalis [25] = experiment: as above; type: cell-based; conditions: [10] tested
Enterococcus faecium [26] = experiment: as above; type: cell-based; conditions: [10] tested
Streptococcus pyogenes = experiment: as above; type: cell-based; conditions: [10] tested
Streptococcus agalactiae = experiment: as above; type: cell-based; conditions: [10] tested
Streptococcus pneumoniae = experiment: as above; type: cell-based; conditions: [10] tested
Listeria monocytogenes = experiment: as above; type: cell-based; conditions: [8] tested
Klebsiella oxytoca = experiment: as above; type: cell-based; conditions: [10] tested
Citrobacter freundii = experiment: as above; type: cell-based; conditions: [10] tested
Citrobacter diversus = experiment: as above; type: cell-based; conditions: [10] tested
Enterobacter cloacae = experiment: as above; type: cell-based; conditions: [10] tested
Enterobacter aerogenes = experiment: as above; type: cell-based; conditions: [10] tested
Proteus mirabilis = experiment: as above; type: cell-based; conditions: [26] tested
Proteus vulgaris = experiment: as above; type: cell-based; conditions: [18] tested
Pseudomonas aeruginosa = experiment: as above; type: cell-based; conditions: [10] tested
Xanthomonas maltophilia = experiment: as above; type: cell-based; conditions: [10] tested
Moraxella catarrhalis = experiment: as above; type: cell-based; conditions: [18] tested
Haemophilus influenzae [27] = experiment: as above; type: cell-based; conditions: [15] tested
[28] = system: Pasturella multocida (Agricultural & Clinical); experiment: as above; type: cell-based; conditions: [17] tested
[29] = system: Bordetella bronchiseptica (Agricultural); experiment: as above; type: cell-based; conditions: [10] tested
[30] = system: Bacertoides fragilis group; experiment: as above; type: cell-based; conditions: [10] tested
Clostridium perfringens = type: cell-based; conditions: [16] tested

## CN(C)c1cc(NC=O)c(O)c2c1CC1CC3C(N(C)C)C(O)=C(C(N)=O)C(=O)C3(O)C(O)=C1C2=O (stereo not drawn)
[1]
  antibacterial activity in vitro (in words): good in vitro activity against tetracycline resistant strains containing the tetM resistance determinant; also recorded: superior to that of minocycline against other isolates

## CN(C)c1cc(NC=O)c(O)c2c1CC1CC3C(N(C)C)C(O)=C(C(N)=O)C(=O)C3(O)C(O)=C1C2=O (stereo not drawn) [Compound A, 7-(Dimethylamino)-9-(formylamino)-6-demethyl-6-deoxytetracycline]
[2]; S. aureus UBMS 88-5 (tetM)
  MIC: 0.03 µg/mL (≈ 0.0599 µM)
[2]; Staphylococcus aureus, S. aureus UBMS 88-5 (tetM)
  MIC: 0.06 µg/mL (≈ 0.12 µM)
[3]
  MIC: <0.015 µg/mL
[3]; Staphylococcus aureus
  MIC: 0.015 µg/mL (≈ 0.03 µM)
[4]; S. aureus UBMS 90-1 (tetM)
  MIC: 0.12 µg/mL (≈ 0.24 µM)
[4]; Staphylococcus aureus, S. aureus UBMS 90-1 (tetM)
  MIC: 0.06 µg/mL (≈ 0.12 µM)
[5]
  MIC: 0.03 µg/mL (≈ 0.0599 µM)
[6]
  MIC: ≤ 0.015 µg/mL
[7]
  MIC: 2 µg/mL (≈ 4 µM)
[8]
  MIC: 4 µg/mL (≈ 7.99 µM)
[9]
  MIC: 8 µg/mL (≈ 16 µM)
[10]
  MIC: ≤ 0.015 µg/mL
[11]
  MIC: ≤ 0.015 µg/mL
[12]
  MIC: 0.03 µg/mL (≈ 0.0599 µM)
E. faecalis 12201
  MIC: 0.12 µg/mL (≈ 0.24 µM)
E. faecalis ATCC 29212
  MIC: ≤ 0.015 µg/mL
E. coli UBMS 88-1 (tetB)
  MIC: 32 µg/mL (≈ 63.9 µM)
[13]
  MIC: 0.12 µg/mL (≈ 0.24 µM)
E. coli UBMS 89-1 (tetM)
  MIC: 0.12 µg/mL (≈ 0.24 µM)
[14]
  MIC: 0.12 µg/mL (≈ 0.24 µM)
E. coli ATCC 25922
  MIC: 0.06 µg/mL (≈ 0.12 µM)
E. coli UBMS 90-4 (tetM)
  MIC: 1 µg/mL (≈ 2 µM)
[15]
  MIC: 0.06 µg/mL (≈ 0.12 µM)
[16]
  MIC: 1 µg/mL (≈ 2 µM)
[17]
  MIC: 0.12 µg/mL (≈ 0.24 µM)
[18]
  MIC: 0.5 µg/mL (≈ 0.999 µM)
Neisseria gonorrhoeae; Neisseria gonorrhoeae
  MIC50: 0.03 µg/mL (≈ 0.0599 µM)
  MIC90: 1 µg/mL (≈ 2 µM)
Neisseria gonorrhoeae; Neisseria gonorrhoeae clinical isolates, (9) tested
  MIC Range: 0.015 to 1.00 µg/mL
Haemophilus influenzae [19]
  MIC50: 0.06 µg/mL (≈ 0.12 µM)
  MIC90: 0.06 µg/mL (≈ 0.12 µM)
  MIC Range: <0.008 to 0.06 µg/mL
Enterococcus faecalis [20]; Enterococcus faecalis
  MIC50: 0.12 µg/mL (≈ 0.24 µM)
  MIC90: 1 µg/mL (≈ 2 µM)
Enterococcus faecalis [20]; Enterococcus faecalis clinical isolates, (14) tested
  MIC Range: <0.015 to 2.00 µg/mL
Enterococcus faecium [21]; Enterococcus faecium
  MIC50: 0.06 µg/mL (≈ 0.12 µM)
  MIC90: 2 µg/mL (≈ 4 µM)
Enterococcus faecium [21]; Enterococcus faecium clinical isolates, (11) tested
  MIC Range: <0.015 to 2.00 µg/mL
Escherichia coli
  MIC50: 0.25 µg/mL (≈ 0.499 µM)
  MIC90: > 32 µg/mL
Klebsiella pneumoniae
  MIC50: 0.5 µg/mL (≈ 0.999 µM)
  MIC90: 0.5 µg/mL (≈ 0.999 µM)
Proteus spp. indole+
  MIC50: 2 µg/mL (≈ 4 µM)
  MIC90: > 32 µg/mL
Bacteroides spp.; Bacteroides
  MIC50: 0.25 µg/mL (≈ 0.499 µM)
  MIC90: 2 µg/mL (≈ 4 µM)
Bacteroides spp.; Bacteroides spp. clinical isolates, (15) tested
  MIC Range: >0.15 to 4.00 µg/mL
[22]
  IC50, concentration of antibiotic required to inhibit protein synthesis by 50% compared to a drug-free control: <0.3 µg/mL
[23]
  IC50, concentration of antibiotic required to inhibit protein synthesis by 50% compared to a drug-free control: 0.4 µg/mL
S. aureus UBMS 90-1
  ED50: 0.22 mg/kg
S. aureus UBMS 90-2
  ED50: 0.49 mg/kg

## CN(C)[C@@H]1C(O)=C(C(N)=O)C(=O)[C@@]2(O)C(O)=C3C(=O)c4c(O)cccc4[C@@](C)(O)[C@H]3C[C@@H]12 [TC, Tetracycline hydrochloride]
[2]; Staphylococcus aureus
  MIC: 32 µg/mL
[3]; Staphylococcus aureus, read-out: MIC
  MIC: 0.12 µg/mL
[4]; Staphylococcus aureus
  MIC: 32 µg/mL
[6]; read-out: MIC
  MIC: 0.12 µg/mL
E. coli UBMS 90-4 (tetM)
  MIC: 64 µg/mL
[16]
  MIC: > 32 µg/mL
[17]
  MIC: 32 µg/mL
[18]
  MIC: 32 µg/mL
[24]
  MIC (range over isolates): 0.12 to 1 µg/mL
Enterococcus faecalis [25]
  MIC (range over isolates): 0.12 to 64 µg/mL
Enterococcus faecium [26]
  MIC (range over isolates): 0.12 to 64 µg/mL
Streptococcus pyogenes
  MIC (range over isolates): 0.12 to 16 µg/mL
Streptococcus agalactiae
  MIC (range over isolates): 0.25 to 64 µg/mL
Streptococcus pneumoniae
  MIC (range over isolates): 0.12 to 2 µg/mL
Listeria monocytogenes
  MIC (range over isolates): 0.12 to 0.5 µg/mL
Klebsiella oxytoca
  MIC (range over isolates): 0.5 to 1 µg/mL
Citrobacter freundii
  MIC (range over isolates): 0.5 to 16 µg/mL
Citrobacter diversus
  MIC (range over isolates): 0.5 to 4 µg/mL
Enterobacter cloacae
  MIC (range over isolates): 0.5 to 2 µg/mL
Enterobacter aerogenes
  MIC (range over isolates): 0.5 to 1 µg/mL
Proteus mirabilis
  MIC (range over isolates): 0.5 to 64 µg/mL
Proteus vulgaris
  MIC (range over isolates): 0.25 to 64 µg/mL
Pseudomonas aeruginosa
  MIC (range over isolates): 2 to 32 µg/mL
Xanthomonas maltophilia
  MIC (range over isolates): 8 to 16 µg/mL
Moraxella catarrhalis
  MIC (range over isolates): 0.06 to 0.5 µg/mL
Haemophilus influenzae [27]
  MIC (range over isolates): 1 to 32 µg/mL
[28]
  MIC (range over isolates): 0.06 to 16 µg/mL
[29]
  MIC (range over isolates): 0.12 to 0.25 µg/mL
[30]
  MIC (range over isolates): 0.25 to 32 µg/mL
Clostridium perfringens
  MIC (range over isolates): 0.015 to 16 µg/mL
[22]
  IC50, concentration of antibiotic required to inhibit protein synthesis by 50% compared to a drug-free control: 0.6 µg/mL
[23]
  IC50, concentration of antibiotic required to inhibit protein synthesis by 50% compared to a drug-free control: 2.0 µg/mL
